Tested on: 252836-082-R-J2-PDC tumor spheroids, viability
Experiment: Anticancer human tumor 252836-082-R-J2-PDC patient-derived head and neck squamous cell carcinoma cell line growth inhibition [PI3K]
Details: spheroids with HUVEC and MSC; for IC50: curve of first compound; for viability, T/C: stronger effect = lower value
Method in brief: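 High-throughput combination screen: PI3K inhibitors crossed with targeted small molecules on complex spheroids of tumor cells, HUVEC and MSCs at 37 degrees C, 5% CO2. Top concentration was at or near clinical Cmax (otherwise 10 microM), with half-log decrements.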

[1] = second compound 0.00316 µM, first compound 0.0316 µM
[2] = second compound 0.00316 µM, first compound 0.1 µM
[3] = second compound 0.00316 µM, first compound 0.316 µM
[4] = second compound 0.00316 µM, first compound 1 µM
[5] = second compound 0.00316 µM, first compound 3.16 µM
[6] = second compound 0.00316 µM, first compound 10 µM
[7] = second compound 0.01 µM, first compound 0.0316 µM
[8] = second compound 0.01 µM, first compound 0.1 µM
[9] = second compound 0.01 µM, first compound 0.316 µM
[10] = second compound 0.01 µM, first compound 1 µM
[11] = second compound 0.01 µM, first compound 3.16 µM
[12] = second compound 0.01 µM, first compound 10 µM
[13] = second compound 0.0316 µM, first compound 0.0316 µM
[14] = second compound 0.0316 µM, first compound 0.1 µM
[15] = second compound 0.0316 µM, first compound 0.316 µM
[16] = second compound 0.0316 µM, first compound 1 µM
[17] = second compound 0.0316 µM, first compound 3.16 µM
[18] = second compound 0.0316 µM, first compound 10 µM
[19] = second compound 0.1 µM, first compound 0.0316 µM
[20] = second compound 0.1 µM, first compound 0.1 µM
[21] = second compound 0.1 µM, first compound 0.316 µM
[22] = second compound 0.1 µM, first compound 1 µM
[23] = second compound 0.1 µM, first compound 3.16 µM
[24] = second compound 0.1 µM, first compound 10 µM
[25] = second compound 0.316 µM, first compound 0.0316 µM
[26] = second compound 0.316 µM, first compound 0.1 µM
[27] = second compound 0.316 µM, first compound 0.316 µM
[28] = second compound 0.316 µM, first compound 1 µM
[29] = second compound 0.316 µM, first compound 3.16 µM
[30] = second compound 0.316 µM, first compound 10 µM
[31] = second compound 1 µM, first compound 0.0316 µM
[32] = second compound 1 µM, first compound 0.1 µM
[33] = second compound 1 µM, first compound 0.316 µM
[34] = second compound 1 µM, first compound 1 µM
[35] = second compound 1 µM, first compound 3.16 µM
[36] = second compound 1 µM, first compound 10 µM
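Note: spheroids exposed to agents for seven days before readout.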
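Throughout, for viability, T/C: percent of vehicle DMSO control viability so 100% = untreated growth.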

With `C#Cc1c(F)ccc2cc(O)cc(-c3ncc4c(N5CC6CCC(C5)N6)nc(OCC56CCCN5CC(F)C6)nc4c3F)c12` (centres undefined) + COc1c(OCCCN2CCOCC2)ccc2c3n(c(=NC(=O)c4cnc(N)nc4)nc12)CCN3 the IC50 (second compound 0.00316 µM) was > 10 µM, the IC50 (second compound 0.01 µM) was > 10 µM and the IC50 (second compound 0.0316 µM) was 3.8 µM. For the same molecule, the IC50 (second compound 0.1 µM) was < 0.0316 µM, the IC50 (second compound 0.316 µM) was < 0.0316 µM and the IC50 (second compound 1 µM) was < 0.0316 µM. For the same molecule, the viability, T/C [1] was 75.2%, the viability, T/C [2] was 79.9% and the viability, T/C [3] was 105%. It also gave a viability, T/C [4] of 76.8%, a viability, T/C [5] of 72.5% and a viability, T/C [6] of 67%. The viability, T/C [7] was 76.5%, the viability, T/C [8] was 76.8% and the viability, T/C [9] was 72.2%. For the same molecule, the viability, T/C [10] was 70%, the viability, T/C [11] was 60.2% and the viability, T/C [12] was 53.2%. For the same molecule, the viability, T/C [13] was 53.5%, the viability, T/C [14] was 62% and the viability, T/C [15] was 53.7%. It also gave a viability, T/C [16] of 57.2%, a viability, T/C [17] of 52.7% and a viability, T/C [18] of 34.9%. It also gave a viability, T/C [19] of 40.4%, a viability, T/C [20] of 37.9% and a viability, T/C [21] of 36.5%. For the same molecule, the viability, T/C [22] was 32.8%, the viability, T/C [23] was 37.6% and the viability, T/C [24] was 18.4%. It also gave a viability, T/C [25] of 16.9%, a viability, T/C [26] of 15.7% and a viability, T/C [27] of 13.2%. It also gave a viability, T/C [28] of 15.3%, a viability, T/C [29] of 12.9% and a viability, T/C [30] of 4.25%. The viability, T/C [31] was 4.39%, the viability, T/C [32] was 4.93% and the viability, T/C [33] was 4.55%. The viability, T/C [34] was 4.71%, the viability, T/C [35] was 2.91% and the viability, T/C [36] was 0.25%.
In the case of `C#Cc1c(F)ccc2cc(O)cc(-c3ncc4c(N5CC6CCC(C5)N6)nc(OCC56CCCN5CC(F)C6)nc4c3F)c12` (centres undefined) + CC(Nc1ccc2c(c1)OCCn1cc(N3C(=O)OCC3C(F)F)nc1-2)C(N)=O, the IC50 (second compound 0.00316 µM) is reported as > 10 µM, the IC50 (second compound 0.01 µM) is reported as > 10 µM and the IC50 (second compound 0.0316 µM) is reported as > 10 µM. The IC50 (second compound 0.1 µM) was 3.73 µM, the IC50 (second compound 0.316 µM) was 0.0817 µM and the IC50 (second compound 1 µM) was < 0.0316 µM. It also gave a viability, T/C [1] of 91.8%, a viability, T/C [2] of 72.8% and a viability, T/C [3] of 76.1%. The viability, T/C [4] was 82.2%, the viability, T/C [5] was 72% and the viability, T/C [6] was 50.7%. For the same molecule, the viability, T/C [7] was 83.7%, the viability, T/C [8] was 73.6% and the viability, T/C [9] was 78.6%. It also gave a viability, T/C [10] of 71%, a viability, T/C [11] of 75.6% and a viability, T/C [12] of 59.5%. The viability, T/C [13] was 74.6%, the viability, T/C [14] was 67.4% and the viability, T/C [15] was 68.9%. It also gave a viability, T/C [16] of 58.8%, a viability, T/C [17] of 56% and a viability, T/C [18] of 56.1%. It also gave a viability, T/C [19] of 62.9%, a viability, T/C [20] of 56.3% and a viability, T/C [21] of 61.9%. For the same molecule, the viability, T/C [22] was 61.1%, the viability, T/C [23] was 49.3% and the viability, T/C [24] was 38.9%. For the same molecule, the viability, T/C [25] was 56%, the viability, T/C [26] was 45.9% and the viability, T/C [27] was 46.7%. It also gave a viability, T/C [28] of 38%, a viability, T/C [29] of 39.4% and a viability, T/C [30] of 32.6%. The viability, T/C [31] was 46.1%, the viability, T/C [32] was 38.7% and the viability, T/C [33] was 45.1%. It also gave a viability, T/C [34] of 36.6%, a viability, T/C [35] of 33.2% and a viability, T/C [36] of 26.6%.

Reference: PubChem BioAssay AID1963985 (Molecular Pharmacology Branch, DTP, NCI, 2024)
